# Measurements as given in US8372874B2, “Compounds which selectively modulate the CB2 receptor” (Boehringer Ingelheim International GmbH, priority 2008, dated 2013).
# Read-outs that look alike come from different tables or passages of the source.
# How the values were obtained:
# human CB2R = target: T1, human CB2R (Homo sapiens, UniProt P34972); assay: CB2R mediated modulation of cAMP synthesis; format: cell-based
# T1 construct: host or cells: CHO cells
# Protocol: B. CB2R Mediated Modulation of cAMP Synthesis:
# Compounds of the invention are evaluated for their CB2 agonist or inverse agonistic activity in accordance with the following experimental method.
# (§1) CHO cells expressing human CB2R (Euroscreen) are plated at a density of 5000 cells per well in 384 well plates and incubated overnight at 37° C. After removing the media, the cells are treated with test compounds diluted in stimulation buffer containing 1 mM IBMX, 0.25% BSA and 10 uM Forskolin. The assay is incubated for 30 minutes at 37° C. Cells are lysed and the cAMP concentration is measured using DiscoverX-XS cAMP kit, following the manufacturer's protocol. In this setting, agonists will decrease forskolin induced production of cAMP while inverse agonists will further increase forskolin induced production of cAMP. EC50 of agonists are calculated as follows. The maximal amount of cAMP produced by forskolin compared to the level of cAMP inhibited by 1 uM CP55940 is defined as 100%. […] Data is analyzed using a four-parameter logistic model. (Model 205 of XLfit 4.0).
# human CB1R = target: T2, human CB1R (Homo sapiens, UniProt P21554); assay: CB1R mediated modulation of cAMP synthesis; format: cell-based
# T2 construct: host or cells: CHO cells
# T2 sequence (P21554 whole entry): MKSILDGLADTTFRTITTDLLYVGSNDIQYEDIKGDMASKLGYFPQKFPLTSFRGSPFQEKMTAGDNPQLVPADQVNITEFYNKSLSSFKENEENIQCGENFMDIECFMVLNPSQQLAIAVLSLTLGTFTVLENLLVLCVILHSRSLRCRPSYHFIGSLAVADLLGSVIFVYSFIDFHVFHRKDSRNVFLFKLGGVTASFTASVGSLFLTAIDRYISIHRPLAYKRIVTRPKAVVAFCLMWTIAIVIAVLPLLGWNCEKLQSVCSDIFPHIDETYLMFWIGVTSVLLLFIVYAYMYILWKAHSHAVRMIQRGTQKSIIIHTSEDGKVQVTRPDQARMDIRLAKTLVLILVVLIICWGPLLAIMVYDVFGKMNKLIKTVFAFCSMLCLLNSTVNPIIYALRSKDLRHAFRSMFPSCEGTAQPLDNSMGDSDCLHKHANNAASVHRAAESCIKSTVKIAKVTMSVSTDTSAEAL
# Protocol: C. CB1R Mediated Modulation of cAMP Synthesis:
# Compounds of the invention are evaluated for their CB1 agonist or inverse agonistic activity in accordance with the following experimental method.
# as §1, with “CB1R” for “CB2R”
# [1] = CHO cells expressing human CB2R, inhibition of forskolin-stimulated cAMP synthesis, read-out: CB2 EC50
# [2] = CHO cells expressing human CB1R, inhibition of forskolin-stimulated cAMP synthesis, read-out: CB1 EC50
# T1 sequence (P34972 whole entry): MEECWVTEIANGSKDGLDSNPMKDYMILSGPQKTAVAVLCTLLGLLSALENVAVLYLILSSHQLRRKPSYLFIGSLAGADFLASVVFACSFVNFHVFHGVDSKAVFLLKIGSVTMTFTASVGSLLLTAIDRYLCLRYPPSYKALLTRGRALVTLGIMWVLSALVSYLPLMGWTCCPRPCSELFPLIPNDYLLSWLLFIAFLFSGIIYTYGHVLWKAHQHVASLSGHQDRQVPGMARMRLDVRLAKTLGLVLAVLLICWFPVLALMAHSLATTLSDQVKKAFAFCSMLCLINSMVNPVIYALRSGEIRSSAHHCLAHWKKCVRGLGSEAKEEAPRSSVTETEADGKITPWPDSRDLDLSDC
Compound,EC50 (human CB2R) [nM],EC50 (human CB1R) [µM],EC50 (human CB2R; [1]) [nM],EC50 (human CB1R; [2]) [µM]
CC(C)(C)C(=O)OCC(C)(C)c1cc(NC(=O)C(C)(C)S(=O)(=O)C2CCOCC2)on1,50,> 50,–,–
C[C@H](O)C(C)(C)c1cc(NC(=O)C(C)(C)S(=O)(=O)C2CCOCC2)on1,14,> 50,–,–
COCCOCC(C)(C)c1cc(NC(=O)C(C)(C)S(=O)(=O)C2CCN(S(C)(=O)=O)CC2)on1,11,> 50,–,–
COCCOCC(C)(C)c1cc(NC(=O)C(C)(C)S(=O)(=O)C[C@H]2CCOC2)on1,98,> 50,–,–
CC(C)(C(=O)Nc1cc(C2CCCO2)no1)S(=O)(=O)C1CCOCC1 (centres unmarked),–,–,101,> 50
CO[C@@H](C)C(C)(C)c1cc(NC(=O)C(C)(C)S(=O)(=O)C2CCOCC2)no1,10.8,> 50,–,–
CC(C)(C(=O)Nc1cc(C2CCOC2)no1)S(=O)(=O)CCCC(F)(F)F (centres unmarked),–,–,172,> 50
CCC(O)C(C)(C)c1cc(NC(=O)C(C)(C)S(=O)(=O)C2CCOCC2)on1 (centres unmarked),29,> 50,–,–
CC(C)(COCCO)c1cc(NC(=O)C(C)(C)S(=O)(=O)C2CCOCC2)no1,2.4,> 50,–,–
COCCOCC(C)(C)c1cc(NC(=O)C(C)(C)S(=O)(=O)C2CCOCC2)on1,2.1,> 50,–,–
C[C@H](O)C(C)(C)c1cc(NC(=O)C(C)(C)S(=O)(=O)CC[C@@H]2CCOC2)no1,15,21,–,–
COCCOC(C)(C)c1cc(NC(=O)C(C)(C)S(=O)(=O)C2CCOCC2)on1,96,> 50,–,–
CC(C)(O)C(C)(C)c1cc(NC(=O)C(C)(C)S(=O)(=O)C2CCOCC2)on1,–,–,116,> 50
CC(C)(COCCO)c1cc(NC(=O)C(C)(C)S(=O)(=O)CC2CCOCC2)on1,13,> 50,–,–
CCOCCOCC(C)(C)c1cc(NC(=O)C(C)(C)S(=O)(=O)C2CCOCC2)on1,1.5,> 50,–,–
CC[C@H](O)C(C)(C)c1cc(NC(=O)C(C)(C)S(=O)(=O)C2CCOCC2)on1,47,> 50,–,–
CC(C)(COC(=O)c1ccccc1)c1cc(NC(=O)C(C)(C)S(=O)(=O)C2CCOCC2)on1,11,> 50,–,–
COCCOCC(C)(C)c1cc(NC(=O)C(C)(C)S(=O)(=O)C2CCOCC2)no1,15,> 50,–,–
CCn1nc(NC(=O)C(C)(C)S(=O)(=O)C2CCOCC2)nc1-c1ccc(O)cc1,10,> 20,–,–
CC(C)(C(=O)Nc1cc([C@@H]2CCCO2)no1)S(=O)(=O)C1CCOCC1,–,–,138,> 50
CC(C)C(O)C(C)(C)c1cc(NC(=O)C(C)(C)S(=O)(=O)C2CCOCC2)on1 (centres unmarked),–,–,150,> 50
C[C@H](OC1CCCOC1)C(C)(C)c1cc(NC(=O)C(C)(C)S(=O)(=O)C2CCOCC2)on1 (some centres unmarked),2.8,> 50,–,–
COCCOCC(C)(C)c1cc(NC(=O)C(C)(C)S(=O)(=O)CCC(F)(F)F)on1,27,> 50,–,–

Compound,EC50 (human CB2R) [nM],EC50 (human CB1R) [µM],EC50 (human CB2R; [1]) [nM],EC50 (human CB1R; [2]) [µM]
CC(C)(C(=O)Nc1cc(C2CCOCC2)no1)S(=O)(=O)CCCC(F)(F)F,–,–,368,> 50
COCCOCC1(c2cc(NC(=O)C(C)(C)S(=O)(=O)C3CCOCC3)on2)CCCCC1,59,> 50,–,–
CC(C)(C(=O)Nc1cc(C2CCOCC2)no1)S(=O)(=O)C1CCOCC1,–,–,348,> 50
CC(C)(COCCO)c1cc(NC(=O)C(C)(C)S(=O)(=O)C2CCN(S(C)(=O)=O)CC2)on1,10,> 50,–,–
C[C@@H](O)C(C)(C)c1cc(NC(=O)C(C)(C)S(=O)(=O)C2CCOCC2)on1,20,> 50,–,–
CC[C@H](C)S(=O)(=O)C(C)(C)C(=O)Nc1cc(C(C)(C)[C@H](C)O)no1,–,–,250,> 50
CC(O)C(C)(C)c1cc(NC(=O)C(C)(C)S(=O)(=O)C2CCOCC2)on1 (centres unmarked),14,> 50,–,–
C[C@H](O)C(C)(C)c1cc(NC(=O)C(C)(C)S(=O)(=O)C2CCN(S(C)(=O)=O)CC2)on1,–,–,107,> 50
C[C@H](O)C(C)(C)c1cc(NC(=O)C(C)(C)S(=O)(=O)CC2CCOCC2)no1,–,–,121,> 50
C[C@H](O)C(C)(C)c1cc(NC(=O)C(C)(C)S(=O)(=O)C2CCOCC2)no1,25,> 50,–,–
CC(=O)OCC(C)(C)c1cc(NC(=O)C(C)(C)S(=O)(=O)C2CCOCC2)on1,4.2,> 50,–,–
C[C@H](O)C(C)(C)c1cc(NC(=O)C(C)(C)S(=O)(=O)c2ccc(F)cc2)on1,42,> 50,–,–
CC(C)CCS(=O)(=O)C(C)(C)C(=O)Nc1cc(C2CCOCC2)no1,97,> 20,–,–
CCn1nc(NC(=O)C(C)(C)S(=O)(=O)C2CCOCC2)nc1-c1ccc(OC)cc1,77,> 500,–,–
CC1(c2cc(NC(=O)C(C)(C)S(=O)(=O)C3CCOCC3)on2)CCCO1 (centres unmarked),13,> 50,–,–
CC[C@@H](O)C(C)(C)c1cc(NC(=O)C(C)(C)S(=O)(=O)C2CCOCC2)on1,70,> 50,–,–
CC(C)(C(=O)Nc1cc(C2(COC3CCCCO3)CCCCC2)no1)S(=O)(=O)C1CCOCC1 (centres unmarked),22,> 50,–,–
CC(O)C(C)(C)c1cc(NC(=O)C(C)(C)S(=O)(=O)CCCC(F)(F)F)on1 (centres unmarked),31,> 20,–,–
COc1ccc(COCC(C)(C)c2cc(NC(=O)C(C)(C)S(=O)(=O)CC3CCOCC3)on2)cc1,–,–,167,> 20
COCCOCC(C)(C)c1cc(NC(=O)C(C)(C)S(=O)(=O)CC2CCOCC2)no1,15,> 50,–,–
CO[C@@H](C)C(C)(C)c1cc(NC(=O)C(C)(C)S(=O)(=O)CC2CCOCC2)no1,30,> 50,–,–
CC(C)(OCCO)c1cc(NC(=O)C(C)(C)S(=O)(=O)C2CCOCC2)on1,28,> 50,–,–
CC(C)(C(=O)Nc1cc(C2(COC3CCCCO3)CCCC2)no1)S(=O)(=O)c1ccc(F)cc1 (centres unmarked),5.3,> 50,–,–
